From paper PMC6010023, “Diethylalkylsulfonamido(4-methoxyphenyl)methyl)phosphonate/phosphonic acid derivatives act as acid phosphatase inhibitors: synthesis accompanied by experimental and molecular modeling assessments” (Journal of Enzyme Inhibition and Medicinal Chemistry, 2016)
Read-outs that look alike come from different tables or passages of the source.

Molecular target: T1, red kidney bean PAP (rkbPAP) (Phaseolus vulgaris, UniProt P80366)
T1 construct: The rkbPAP was purified from red kidney bean according to the method described by Beck et al; from tissue; host or cells: red kidney bean seeds (Phaseolus vulgaris), local market
T1 sequence (P80366 23-459): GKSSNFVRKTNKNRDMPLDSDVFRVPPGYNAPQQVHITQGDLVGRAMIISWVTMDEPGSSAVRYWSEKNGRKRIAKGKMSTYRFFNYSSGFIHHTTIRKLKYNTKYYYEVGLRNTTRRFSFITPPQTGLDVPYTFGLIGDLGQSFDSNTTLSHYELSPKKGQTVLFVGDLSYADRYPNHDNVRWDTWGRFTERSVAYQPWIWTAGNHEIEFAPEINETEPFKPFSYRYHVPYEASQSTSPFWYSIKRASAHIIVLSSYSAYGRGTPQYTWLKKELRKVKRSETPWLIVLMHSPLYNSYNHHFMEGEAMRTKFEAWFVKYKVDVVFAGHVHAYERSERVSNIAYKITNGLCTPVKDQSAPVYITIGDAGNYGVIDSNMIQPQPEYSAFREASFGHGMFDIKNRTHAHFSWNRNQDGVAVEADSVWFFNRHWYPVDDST
Assay: rkbPAP inhibition assay with p-NPP as substrate
Assay type: biochemical
Conditions: for Ki / inhibition of PAP (in words): pH 4.9; for inhibition mode: from Ki vs KI and Lineweaver–Burk plots
Text: PAP from red kidney bean (rkbPAP) was purified following a previously published protocol. Briefly, red kidney beans (Phaseolus vulgaris), provided from local market, were ground and suspended in 0.5 M sodium chloride solution. The suspension was filtered through a muslin cloth, followed by ethanol fractionation and ammonium sulfate precipitation. The purple enzyme solution was dialyzed against several changes of 0.25 M NaCl over a period of several days. The purple precipitate, which formed in the dialysis bag was collected by centrifugation. The resulting preparation stored at 4 °C in 0.5 M NaCl. The protein identity and purity was tested by SDS–polyacrylamide gel electrophoresis (SDS–PAGE) and by comparing with molecular weight protein markers, by loading the protein samples on a 12% slab gel. Protein concentration was determined by Lowry method.
Inhibition assays for rkbPAP was performed in 96-well multi-titer plates using a microplate reader. Kinetic measurements were taken at pH 4.9 (0.1 M sodium citrate buffer with 5% DMSO) at 25 °C using p-nitrophenyl phosphate (p-NPP) as the substrate at concentrations of 1, 2, 4, 6, 8, 10, 12, 14, 18 and 24 mM[29]. The hydrolysis of p-NPP by PAP produces p-nitrophenol (p-NP), which has a characteristic intense yellow color at 405 nm with […] [18]^,[26]. The concentration of enzyme used was ∼60 nM, while at least eight concentrations of each compound ranged from 50 to 2000 µM. The IC50 values obtained by “Dose–response inhibition/variable slopes” equation that was performed using GraphPad Prism version 5.00 for Windows (GraphPad Software, San Diego CA, www.graphpad.com). The experimental data are representative example of three independent experiments. In most cases, the standard deviations were almost within 5% of the experimental values, except for some inhibition data points where standard errors of means were within 10% of the measured values. p < .05 was considered statistically significant.
To determination of inhibition mode, the Michaelis–Menten constant (Km) and maximum velocity (Vmax) and inhibition constants (Ki and KI) values were obtained using Equation (1)[29]^,[30] in the presence of at least four concentrations of each compound which were selected from concentration–activity curves. The data were analyzed by nonlinear regression using the program GraphPad Prism (1) v=Vmax[S]/[S](1+[I]/KI)+Km(1+[I]/Ki) where Ki and KI are the equilibrium dissociation constants for competitive and uncompetitive inhibitor binding, respectively, while, v, [S] and [I] represent the rate of product formation, the substrate and the inhibitor concentration, respectively. […] If Ki < KI, the type of enzyme inhibition was defined as competitive-noncompetitive and if Ki > KI, the type of enzyme inhibition was defined as uncompetitive–noncompetitive. […] For better visual presentation of data of inhibition mode, the Lineweaver–Burk plots were also provided.

[1] = dissociation constant of enzyme–inhibitor complex (competitive), read-out: Ki
[2] = dissociation constant of enzyme–substrate–inhibitor complex (uncompetitive), read-out: KI
[3] = rkbPAP, pH 4.9, 25 °C, p-NPP substrate, read-out: IC50
[4] = rkbPAP, pH 4.9, 25 °C, p-NPP substrate
[5] = KI, dissociation constant of enzyme–substrate–inhibitor complex (uncompetitive)
[6] = Ki, dissociation constant of enzyme–inhibitor complex (competitive)

SMILES | Ki [1] | inhibition mode | IC50 [3] | inhibition of PAP (in words) | IC50 [4] | also measured
CCCCCCCCCCCCS(=O)(=O)NC(c1ccc(OC)cc1)P(=O)(O)O (stereo not drawn) [4c, (Dodecylsulfonamido(4-methoxyphenyl)methyl)phosphonic acid] | 95 ± 9 µM | noncompetitive inhibition | 421 µM | – | – | Ki [2]: 103 ± 5 µM
CCCCCCS(=O)(=O)NC(c1ccc(OC)cc1)P(=O)(O)O (stereo not drawn) [4a, (Hexylsulfonamido(4-methoxyphenyl)methyl)phosphonic acid] | – | – | – | negligible inhibitions of PAP, in millimolar range | Very weak inhibitor | –
CCCCCCCCS(=O)(=O)NC(c1ccc(OC)cc1)P(=O)(OCC)OCC (stereo not drawn) [3b, Diethyl((4-methoxyphenyl)(octylsulfonamido)methyl)phosphonate] | – | – | – | negligible inhibitions of PAP, in millimolar range | Very weak inhibitor | –
CCCCCCCCCCCCCCCCS(=O)(=O)NC(c1ccc(OC)cc1)P(=O)(O)O (stereo not drawn) [4d, (Hexadecylsulfonamido(4-methoxyphenyl)methyl)phosphonic acid] | 1.1 ± 0.2 µM | mixed manner | 13 µM | – | – | Ki [2]: 8.2 ± 1.4 µM
CCCCCCCCS(=O)(=O)NC(c1ccc(OC)cc1)P(=O)(O)O (stereo not drawn) [4b, ((4-Methoxyphenyl)(octylsulfonamido)methyl)phosphonic acid] | – | – | – | negligible inhibitions of PAP, in millimolar range | Very weak inhibitor | –
CCCCCCCCCCCCCCCCS(=O)(=O)NC(c1ccc(OC)cc1)P(=O)(OCC)OCC (stereo not drawn) [3d, Diethyl(hexadecylsulfonamido(4-methoxyphenyl)methyl)phosphonate] | – | mixed manner | – | – | – | IC50: 92 µM; Ki [5]: 36 ± 3 µM; Ki [6]: 13 ± 1 µM
CCCCCCS(=O)(=O)NC(c1ccc(OC)cc1)P(=O)(OCC)OCC (stereo not drawn) [3a, Diethyl(hexylsulfonamido(4-methoxyphenyl)methyl)phosphonate] | – | – | – | negligible inhibitions of PAP, in millimolar range | Very weak inhibitor | –
O=C(O)C(O)C(O)C(=O)O (stereo not drawn) [Tartrate, reference compound] | 783 ± 41 µM | – | 3310 µM | weakly inhibited | – | –
CCCCCCCCCCCCS(=O)(=O)NC(c1ccc(OC)cc1)P(=O)(OCC)OCC (stereo not drawn) [3c, Diethyl(dodecylsulfonamido(4-methoxyphenyl)methyl)phosphonate] | – | noncompetitive inhibition | – | – | – | IC50: 759 µM; Ki [5]: 211 ± 8 µM; Ki [6]: 202 ± 11 µM
